Assay results reported in ChEMBL document CHEMBL6096725, “Repurposing Linezolid in Conjunction with Histone Deacetylase Inhibitor Access in the Realm of Glioblastoma Therapies” (J Med Chem, 2025).
The source made the active and inactive calls. The rule behind the calls is not given here.

Experiments:
[1] = target: T1, Histone deacetylase (Homo sapiens) (UniProt Q13547+O15379+Q9UBN7+Q92769+Q9UQL6+Q8WUI4+Q9BY41+Q96DB2+P56524+Q9UKV0+Q969S8); test: Inhibition of HDAC in human U-87 MG cells assessed as increase in acetyl histone H3 at K5 sites at 10 uM incubated for 1 hr by Western blot analysis; format: cell-based
[2] = target: T1, Histone deacetylase (Homo sapiens); test: Inhibition of HDAC in human U-87 MG cells assessed as increase in acetyl histone H3 at K9 sites at 10 uM incubated for 1 hr by Western blot analysis; format: cell-based
U-87 MG [3] = test: Disruption of DNA homologous recombination repair in human U-87 MG cells assessed as HR repaired cells at 5 uM incubated for 48 hrs by flow cytometry relative to control; format: functional, U-87MG ATCC
TZM-resistant GBM cell [4] = test: Disruption of DNA repair in patient-derived human TMZ-resistant GBM cells assessed as decrease in RAD51 level upto 80 uM incubated for 72 hrs by Western blot analysis; format: functional, cell-based
TZM-resistant GBM cell [5] = test: Effect on cellular proliferation dynamics in patient-derived human TMZ-resistant GBM cells at 10 uM incubated for 72 hrs by RNA-seq analysis; format: functional, cell-based
TMZ-resistant CT-2A cell [6] = test: Antitumor activity against mouse CT-2A cells implanted in C57BL/6 mouse assessed as tumor growth inhibition at 10 mg/kg, ip measured for 10 to 17 days by IVIS analysis; format: functional, organism-based; details: time 10-17 day
Mus musculus = test: In vivo antitumor activity against patient-derived human TMZ-resistant GBM cells implanted in C57BL/6 mouse assessed as increase in animal survival at 10 to 20 mg/kg administered on every 3 days measured for 60 days in presence of TMZ; format: functional, organism-based; details: dose 10-20 mg/kg, time 60.0 day
[7] = target: T1, Histone deacetylase (Homo sapiens); test: Inhibition of HDAC in human U-87 MG cells assessed as increase in acetyl histone H3 at K56 sites at 10 uM incubated for 1 hr by Western blot analysis; format: cell-based
[8] = Drug uptake in C57BL/6 mouse brain at 360 mg/kg, ip measured after 30 mins by UPLC analysis; format: ADME, organism-based; details: in vivo, 0.5 h
U-87 MG [9] = test: Disruption of DNA homologous recombination repair in human U-87 MG cells assessed as HR repaired cells at 2.5 uM incubated for 48 hrs by flow cytometry relative to control; format: functional, U-87MG ATCC
TZM-resistant GBM cell [10] = test: Induction of RAD51 degradation in human TMZ-resistant GBM cells assessed increase in RAD51 ubiquitination upto 20 uM incubated for 24 hrs by Western blot analysis; format: cell-based
[11] = target: T1, Histone deacetylase (Homo sapiens); test: Inhibition of HDAC in human U-87 MG cells assessed as increase in acetyl histone H3 at K27 sites at 10 uM incubated for 1 hr by Western blot analysis; format: cell-based
[12] = target: T1, Histone deacetylase (Homo sapiens); test: Inhibition of HDAC in human U-87 MG cells assessed as increase in acetyl histone H3 at K18 sites at 10 uM incubated for 1 hr by Western blot analysis; format: cell-based
TMZ-resistant CT-2A cell [13] = test: Antitumor activity against mouse TMZ-resistant CT-2A cells implanted in C57BL/6 mouse assessed as tumor growth inhibition at 50 mg/kg, po measured for 17 to 25 days by IVIS analysis; format: functional, organism-based; details: time 17-25 day
[14] = Drug uptake in C57BL/6 mouse plasma at 360 mg/kg, ip measured after 30 mins by UPLC analysis; format: ADME, organism-based; details: in vivo, 0.5 h
TZM-resistant GBM cell [15] = test: Suppression of mitotic nuclear division in patient-derived human TMZ-resistant GBM cells by GSEA analysis; format: functional, cell-based
[16] = target: T1, Histone deacetylase (Homo sapiens); test: Inhibition of HDAC in human U-87 MG cells assessed as increase in acetyl histone H3 at K8 sites at 10 uM incubated for 1 hr by Western blot analysis; format: cell-based
TZM-resistant GBM cell [17] = test: Antitumor activity against patient-derived human TMZ-resistant GBM cells implanted in C57BL/6 mouse assessed as inhibition of tumor cell growth in brain at 10 to 20 mg/kg administered on every 3 days measured for 60 days in presence of TMZ; format: functional, organism-based; details: dose 10-20 mg/kg, time 60.0 day
TZM-resistant GBM cell [18] = test: Suppression of DNA replication in patient-derived human TMZ-resistant GBM cells by GSEA analysis; format: functional, cell-based
TZM-resistant GBM cell [19] = test: Disruption of DNA repair in patient-derived human TMZ-resistant GBM cells assessed as decrease in RAD51 level at 40 uM upto 80 hrs by Western blot analysis; format: functional, cell-based
TZM-resistant GBM cell [20] = test: Induction of cell cycle arrest in patient-derived human TMZ-resistant GBM cells assessed as accumulation of cells at G2/M phase at 1 to 20 uM; format: functional, cell-based; details: dose 1-20 µM
[21] = target: T1, Histone deacetylase (Homo sapiens); test: Inhibition of HDAC in human U-87 MG cells assessed as increase in acetyl histone H3 at K4 sites at 10 uM incubated for 1 hr by Western blot analysis; format: cell-based
TZM-resistant GBM cell [22] = test: Disruption of DNA repair in patient-derived human TMZ-resistant GBM cells assessed as increase in ATM phosphorylation upto 80 uM incubated for 72 hrs by Western blot analysis; format: functional, cell-based
TZM-resistant GBM cell [23] = test: Disruption of DNA repair in patient-derived human TMZ-resistant GBM cells assessed as decrease in CtIP level at 40 uM upto 80 hrs by Western blot analysis; format: functional, cell-based
TZM-resistant GBM cell [24] = test: Disruption of DNA repair in patient-derived human TMZ-resistant GBM cells assessed as decrease in CtIP level upto 80 uM incubated for 72 hrs by Western blot analysis; format: functional, cell-based
TZM-resistant GBM cell [25] = test: Induction of cell cycle arrest in patient-derived human TMZ-resistant GBM cells assessed as decrease in accumulation of cells at G0/G1 phase at 1 to 20 uM; format: functional, cell-based; details: dose 1-20 µM
[26] = target: T1, Histone deacetylase (Homo sapiens); test: Inhibition of HDAC in human U-87 MG cells assessed as increase in acetyl histone H3 at K14 sites at 10 uM incubated for 1 hr by Western blot analysis; format: cell-based
TZM-resistant GBM cell [27] = test: Disruption of DNA repair in patient-derived human TMZ-resistant GBM cells assessed as decrease in RPA32 level upto 80 uM incubated for 72 hrs by Western blot analysis; format: functional, cell-based
[28] = target: T1, Histone deacetylase (Homo sapiens); test: Inhibition of HDAC in human U-87 MG cells assessed as increase in acetyl histone H3 at K16 sites at 10 uM incubated for 1 hr by Western blot analysis; format: cell-based
TZM-resistant GBM cell [29] = test: Disruption of DNA repair in patient-derived human TMZ-resistant GBM cells assessed as decrease in RAD51 level at 20 uM upto 80 hrs by Western blot analysis; format: functional, cell-based
TZM-resistant GBM cell [30] = test: Disruption of DNA repair in patient-derived human TMZ-resistant GBM cells assessed as decrease in CtIP level at 20 uM upto 80 hrs by Western blot analysis; format: functional, cell-based

Structure (SMILES): O=C(/C=C/c1ccc(CNC[C@H]2CN(c3ccc(N4CCOCC4)c(F)c3)C(=O)O2)cc1)NO
- inhibition [1]: Active
- inhibition [2]: Active
- Activity (U-87 MG [3]): 5.06%
- Activity (TZM-resistant GBM cell [4]): Active
- Activity (TZM-resistant GBM cell [5]): Active
- inhibition (TMZ-resistant CT-2A cell [6]): Active
- Activity (Mus musculus): Active
- inhibition [7]: Active
- Drug uptake [8]: Active
- Activity (U-87 MG [9]): 11.4%
- Activity (TZM-resistant GBM cell [10]): Active
- inhibition [11]: Active
- inhibition [12]: Active
- inhibition (TMZ-resistant CT-2A cell [13]): Active
- Drug uptake [14]: Active
- Activity (TZM-resistant GBM cell [15]): Active
- inhibition [16]: Active
- inhibition (TZM-resistant GBM cell [17]): Active
- Activity (TZM-resistant GBM cell [18]): Active
- Activity (TZM-resistant GBM cell [19]): Active; Rapid And Significant Decrease In Expression Observed Over Time
- Activity (TZM-resistant GBM cell [20]): Active
- inhibition [21]: Active
- Activity (TZM-resistant GBM cell [22]): Active; Result Suggests Activation Of Physiological Response To Dsbs Induced By Compound
- Activity (TZM-resistant GBM cell [23]): Active; Rapid And Significant Decrease In Expression Observed Over Time
- Activity (TZM-resistant GBM cell [24]): Active
- Activity (TZM-resistant GBM cell [25]): Active
- inhibition [26]: Active
- Activity (TZM-resistant GBM cell [27]): Active
- inhibition [28]: Active

Structure (SMILES): C[C@@H]1C[C@@H]([C@H](O)CC2CC(=O)NC(=O)C2)C(=O)[C@@H](C)C1
- Activity (TZM-resistant GBM cell [29]): Active; Less Pronounced Effect Observed
- Activity (TZM-resistant GBM cell [30]): Active; Less Pronounced Effect Observed
